Laboratory results from patent US6844321B2, “Crystallization of a GLP-1 analogue” (Novo Nordisk A/S, priority 2000, dated 2005).

Assay: isoelectric point (pI) of the GLP-1 analogue
Type: physicochemical
Details: isoelectric point of the peptide, stated in the description

pI: about 5.4
Substance: Arg^34GLP-1(7-37)
